Results on three compounds are retold here after US7501395B2, “Method of screening for antianxiety drugs” (Eisai R & D Management Co., Ltd., priority 2005, dated 2009).

For one experiment, the system named is mouse. As to conditions: intracerebroventricular administration to a mouse; cited from earlier work.
A further experiment concerns WISTAR rats. Nature of the experiment: elevated plus maze test, orexin-A (Example 1). It is filed as in vivo. As to conditions: intracerebroventricular administration to rats, 0.1 to 3.0 nmol, 15 minutes before test; 5 min test. On the procedure: WISTAR rats (male, 300 to 400 g, Charles River, Japan) were used for the elevated plus maze test. Two […] were bred per cage.
(§1) Orexin-A (Peptide Institute Inc., Osaka, Japan) was dissolved in an artificial cerebrospinal fluid (aCSF: glucose 10 mM, KCl 2 mM, NaCl 115 mM, CaCl2 2.5 mM, MgSO4 1.2 mM, NaHCO3 25 mM, KH2PO4 2.2 mM; pH 7. 4) to prepare solutions at various concentrations (0.1 nmol/μl, 0.3 nmol/μl, 1.0 nmol/μl, 3.0 nmol/μl). The artificial cerebrospinal fluid was used alone as a negative control.
(§2) A stainless-steel injection needle was used that can be inserted into the lateral ventricle to a point 0.5 mm deeper than the tip of the guide cannula for intracerebroventricularly administering an orexin-A solution. The amounts of orexin-A solution were 2 μl and 5 μl for mice and rats, respectively. A microsyringe (705N 50 μl, Hamilton, Nevada, USA) was connected to a reflux pump (CMA100, BAS Inc., Tokyo, Japan) for injection at a precisely constant rate (1 μl/min for mice and 2.5 μl/min for rats).
The following five subject groups were tested. […]
At the end of the test, the total time spent in the open arms was calculated for each test animal, and the results were expressed as “average time+SEM” for each test subject (see FIG. 2). […]

The subject of experiment [1] is C57BL/6NCrj mice. In words: light-dark exploration test, orexin-A (Example 1). It is filed as in vivo. The note with it: for time spent in the light compartment, difference from the aCSF administration group: intracerebroventricular, mice. On the procedure: C57BL/6NCrj mice (male, 25 to 30 g, Charles River, Japan) were used for the light-dark exploration test. Ten mice were bred per cage.
as §1, §2
The following four subject groups were tested.
The test apparatus consisted of two compartments, namely a dark compartment (depth 10 cm×width 15 cm×length 20 cm) and a light compartment (depth 20 cm×width 15 cm×length 20 cm). Specifically, the dark compartment was made using a black plastic material with a lid on top whereas the light compartment was made using a white plastic material with an open top. Both of the light and dark compartments were connected via a black plastic tunnel (depth 7 cm×width 10 cm×length 4.5 cm) that allows access to both compartments.
The illumination of the test room was set to 150 lux. The test animals were habituated to an illumination of 10 lux in another room for more than 3 hours before starting the test (except upon administration). This test was conducted between 13:00 to 16:00. […]
At the end of the test, the total time spent in the light compartment was calculated for each test animal, and the results were expressed as “average time+SEM” (see FIG. 1). […]

Experiment [2] relates to C57BL/6NCrj mice. Nature of the experiment: elevated plus maze test, orexin-A (Example 2). Format: in vivo. As to conditions: 1.0 nmol orexin-A, intracerebroventricular, vs aCSF administration group, p<0.05. As to the method: C57BL/6NCrj mice (male, 25 to 30 g, Charles River, Japan) were used. Ten mice were bred per cage.
Orexin-A (Peptide Institute Inc., Osaka, Japan) was dissolved in an artificial cerebrospinal fluid (aCSF: glucose 10 mM, KCl 2 mM, NaCl 115 mM, CaCl2 2.5 mM, MgSO4 1.2 mM, NaHCO3 25 mM, KH2PO4 2.2 mM; pH 7.4) to prepare a solution at a predetermined concentration (1.0 nmol/μl). The artificial cerebrospinal fluid was used alone as a negative control.
A stainless-steel injection needle was used that can be inserted into the lateral ventricle at a point 0.5 mm deeper than the tip of the guide cannula for intracerebroventricular administration of the orexin-A solution. The amount of the orexin-A solution was 2 μl. A microsyringe (705N 50 μl, Hamilton, Nevada, USA) was connected to a reflux pump (CMA100, BAS Inc., Tokyo, Japan) for injection at a precisely constant rate (1 μl/min).
The following two subject groups were tested.
The elevated plus maze test was basically carried out according to the test procedure described in S. Pellow et al. (J. Neurosci. Methods, vol. 14 (1985), p-149-167). […]
At the end of the test, the total time spent in the open arms was calculated for each test animal, and the results were expressed as “average time+SEM” for each test subject (see FIG. 3). […]

The next experiment concerns the target T1, orexin receptor-2 (OX2R) (Homo sapiens, UniProt O43614).
T1 sequence (O43614 1-444): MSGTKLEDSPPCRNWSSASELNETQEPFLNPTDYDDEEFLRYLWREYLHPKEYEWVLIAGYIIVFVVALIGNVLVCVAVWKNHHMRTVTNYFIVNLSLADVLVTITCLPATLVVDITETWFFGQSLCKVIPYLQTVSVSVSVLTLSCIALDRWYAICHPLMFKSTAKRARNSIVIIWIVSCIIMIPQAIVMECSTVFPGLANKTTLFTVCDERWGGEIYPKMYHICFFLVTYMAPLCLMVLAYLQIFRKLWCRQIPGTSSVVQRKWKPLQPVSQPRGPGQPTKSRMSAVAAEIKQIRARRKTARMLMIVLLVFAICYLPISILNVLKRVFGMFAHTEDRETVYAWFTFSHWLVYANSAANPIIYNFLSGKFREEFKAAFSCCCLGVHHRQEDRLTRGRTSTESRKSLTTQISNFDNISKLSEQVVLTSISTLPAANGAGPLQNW
The note with it: orexin-A compared with orexin-B; cited from earlier work.

Experiment [3] has as its system C57BL/6NCrj mice. In words: light-dark exploration test, SB-334867 (Example 3). It is filed as in vivo.
Experimental: Specifically, two types of solutions, 0.50 nmol/μl and 1.50 nmol/μl, were prepared. The artificial cerebrospinal fluid (aCSF) was used alone as a negative control.
The position of the inserted cannula was also confirmed in the same manner.
The following three subject groups were tested.
The test apparatus consisted of a dark compartment (depth 10 cm×width 15 cm length 20 cm) and a light compartment (depth 20 cm×width 15 cm×length 20 cm). Specifically, the dark compartment was made of a black plastic material with a lid on top whereas the light compartment was made of a white plastic material with an open top. Both of the light and dark compartments were connected via a black plastic tunnel (depth 7 cm×width 10 cm×length 4.5 cm) that allows access to both compartments.
At the end of the test, the total time spent in the light compartment was calculated for each test animal, and the results were expressed as “average time+SEM” for each test subject (see FIG. 4). […]

Ends that are not written are not given here.

As to “orexin-A: neuropeptide, endogenous orexin receptor ligand; 33 amino acids with two disulfide bonds; from Peptide Institute Inc. (QPLPDCCRQKTCSCRLYELLHGAGNHAAGILTL; disulfide (positions not given here); ends not checked; also: two disulfide bonds, pairing not given here; UniProt O43612 34-66, looked up)”, the “stress-like behaviors such as face washing, grooming, searching and burrowing” value in the experiment on mouse is “increases”. In addition, in the experiment on WISTAR rats, the “time spent in the open arms” value is on record as “shortened volume-dependently”. Further, the “time spent in the light compartment, difference from the aCSF administration group” value in the experiment on C57BL/6NCrj mice [1] (0.1 nmol orexin-A administration group) and in the experiment with C57BL/6NCrj mice [1] (1.0 nmol orexin-A administration group) was “significant difference” each time. Also, the “time spent in the light compartment” value in the experiment on C57BL/6NCrj mice [1] (intracerebroventricular administration to mice 15 minutes before test, 5 min test, vs aCSF) is “significantly shortened”. Moreover, in the experiment on C57BL/6NCrj mice [2], the “time spent in the open arms (elevated plus maze test, FIG. 3)” value is “significantly shortened”.
On to “orexin-B: neuropeptide, endogenous orexin receptor ligand comprising 28 amino acids”, for which the “binding affinity of OX2R” value in the experiment with orexin receptor-2 (OX2R) is “generally the same level”.
On to `Cc1nc2ccc(NC(=O)Nc3ccnc4cccnc34)cc2o1` [SB-334867, 1-(2-methylbenzoxazole 6-yl)-3-[1,5]naphthyridine-4-yl urea], for which, in the experiment on C57BL/6NCrj mice [3] (intracerebroventricular administration to mice, 1 nmol and 3 nmol, 15 minutes before test, 5 min test), the “time spent in the light compartment” value is “lengthened time spent in the light compartment dosage-dependently”. For the same compound, the “assessment result: action on anxiety” value in the experiment on C57BL/6NCrj mice [3] (light-dark exploration test, mice, intracerebroventricular) is “anxiogenic action”.
